This passage reports IC50 results from BindingDB's records for doi:10.1021/jm980217s (Abbott Laboratories, 1998).

pIC50: −log10 of the molar value.

A short description of this assay: Binding affinity for endothelin B receptor by measuring its ability to displace [125I]-ET-3 from porcine cerebellar tissue.
In general, pIC50 refers to the IC50 on a negative log10 scale, so that one unit is a factor of ten. For the compound `CCCCN(CCCC)C(=O)CN1C[C@H](c2ccc3c(c2)OCO3)[C@@H](C(=O)O)[C@@H]1CCC1CCOCC1` [(2S,3R,4S)-4-Benzo[1,3]dioxol-5-yl-1-dibutylcarbamoylmethyl-2-[2-(tetrahydro-pyran-4-yl)-ethyl]-pyrrolidine-3-carboxylic acid], the pIC50 is less than 4.00. As to `C=CCCC[C@H]1[C@H](C(=O)O)[C@@H](c2ccc3c(c2)OCO3)CN1CC(=O)N(CCCC)CCCC` [(2S,3R,4S)-4-Benzo[1,3]dioxol-5-yl-1-dibutylcarbamoylmethyl-2-pent-4-enyl-pyrrolidine-3-carboxylic acid], the pIC50 is 4.22. In turn, `CCCCC[C@H]1[C@H](C(=O)O)[C@@H](c2ccc3c(c2)OCO3)CN1CC(=O)N(CCCC)CCCC` [(2S,3R,4S)-4-Benzo[1,3]dioxol-5-yl-1-dibutylcarbamoylmethyl-2-pentyl-pyrrolidine-3-carboxylic acid] had a pIC50 of 4.33. Compound `CCCCN(CCCC)C(=O)CN1C[C@H](c2ccc3c(c2)OCO3)[C@@H](C(=O)O)[C@@H]1CCC=C1CC1` [(2S,3R,4S)-4-Benzo[1,3]dioxol-5-yl-2-(3-cyclopropylidene-propyl)-1-dibutylcarbamoylmethyl-pyrrolidine-3-carboxylic acid] showed a pIC50 of 5.00.
